In patent US10201523B2, “Use of wilforlide A for overcoming chemotherapy resistance” (WESTERN UNIVERSITY OF HEALTH SCIENCES, priority 2013, dated 2019):
Several values for one entry are separate records, joined by “and”; a condition that tells them apart may be missing. Equal values may be shown once.

Key:
[1] = Maximum tolerated dose study, single and multiple dose (sdMTD, mdMTD); format: in vivo; conditions: single and multiple (daily, 7 days) dose, CD-1 mice
Experimental: Maximum tolerated dose (MTD)s of wilforlide A were determined for single MTD (sdMTD) and multiple dose MTD (mdMTD) protocols. […] A seven day-long sdMTD study was performed in which the single dose was administered on day one. A seven day-long mdMTD study was also performed in which wilforlide was administered daily.
(§1) The administration routes used in these studies were intravenous (i.v.), oral gavage (p.o.), and intraperitoneal (i.p.) administration. […] More specifically, working concentrations of wilforlide A were prepared by: (i) dissolving wilforlide A inDMSO at a concentration of 3 mg/ml at 80° C. for use with i.p. administration; (ii) dissolving wilforlide A in Capmul™ at a concentration of 3 mg/ml for use with p.o. administration; and (iii) dissolving wilforlide A inDMSO at a concentration of 1.5 mg/ml at 80° C., and then diluted ten times in 40% HBCD (w/v) for use with i.v. administration. […] Thus, the MTD study was started with these doses.
For each dose regimen tested, 12 CD-1 mice (6 males and 6 females) received appropriate volume of each wilforlide A preparation. The mice were housed with food and water ad libitum. All mice were monitored for the four hour period that immediately followed wilforlide A administration for indications of acute toxicity, as well as monitored at least 3 times daily for one week for indications of delayed toxicity. The mice were also weighed 24 hours post treatment as well as every other day during the week-long study.

[2] = Water solubility of wilforlide A; format: physicochemical
PC3-TxR [3] = experiment: SRB cell viability assay, docetaxel with/without wilforlide A pretreatment; format: cell-based, human; conditions: PC3-TxR (docetaxel-resistant); 0.6-5.0 μg/ml pretreatment
DU145-TxR = experiment: as above; format: cell-based; conditions: DU145-TxR (docetaxel-resistant); 2.5 μg/ml pretreatment
Excerpt: FIG. 4 summarizes the data of Tables 18 and 19 in a graphical format.

PC3-TxR cell tumors = experiment: In vivo tumor xenograft study, chemosensitizing effect with docetaxel; set-up: species or system SCID mice
Excerpt: To perform this study, tumors were caused to form in fifty six severe four to six week-old, severe combined immunodeficient (SCID) male mice (Taconic Farms, Inc. Oxnard, Calif.) that weighed from 15 to 20 g were obtained and housed in cages with HEPA-filtered air (12-hr light/dark cycle) by subcutaneously injecting PC3-TxR cells in the mice. To prepare the cells for injection, the cells were suspended in a 1:1 mixture of Matrigel (BC Biosciences, Franklin Lakes, N.J., U.S.A.) and RPMI 1640 (Mediatech, Manassas, Va., or Life Technologies, Grand Island, N.Y.). Then the cells were subcutaneously implanted into planks of mice via injection. Mice that had consistently shown tumor growth for fourteen days following the injection of cells were used in the tumor studies. More specifically, these studies were initiated when the xenografted tumors reached a tumor size of about 120 mm^3, calculated by the formula for a semiepplipoid, i.e., Volume=Width2×(Length/2).

SkBr3-TxR = experiment: SRB cell viability assay, lapatinib with/without wilforlide A pretreatment; format: cell-based; conditions: SkBr3-TxR (lapatinib-resistant); 2.5 μg/ml pretreatment
Bt474-TxR = experiment: as above; format: cell-based; conditions: BT474-TxR (lapatinib-resistant); 2.5 or 25 μg/ml pretreatment
K562/Dox = experiment: SRB cell viability assay, daunorubicin with/without wilforlide A pretreatment; format: cell-based; conditions: K562/Dox (daunorubicin-resistant); 2.5 μg/ml pretreatment
Excerpt: Wilforlide A sensitizes the daunorubicin-resistant myelogenous leukemia line K562/Dox, to daunorubicin. […] FIG. 5 summarizes the data of Tables 20 and 21 in a graphical format.

[4] = Pharmacokinetics of wilforlide A in mice (plasma, HPLC-MS/MS); format: in vivo; conditions: CD-1 mice; for Cmax: plasma; for T1/2: terminal elimination
Experimental: as §1
To determine the pharmacokinetics of wilforlide A in mice, wilforlide A was formulated for i.p., p.o., and i.v. administration as describe above, for doses of 6, 30, and 1.2 mg/kg, respectively. Four CD-1 mice were sacrificed prior to wilforlide A administration and at: (i) 5, 10, 15, 20, 30, and 60 min after i.p. administration; (ii) 2, 5, 10, 15, 20, and 30 min after p.o. administration; and (iii) 1, 2, 3, and 4 hours after i.v. administration. At each time point, blood was drawn via heart puncture and plasma was separated by a five min centrifution at 10000 rpm. Plasma wilforlide A concentrations were measured using a validated HPLC-MS/MS method. The peak drug concentration (Cmax) and time to peak drug concentration (Tmax) were read directly from the plasma concentration time course data, while the terminal elimination half-life (T1/2) was calculated to be 0.693/Ke, where Ke was the terminal phase elimination rate. A-C, respectfully.

PC3 = experiment: SRB cell viability assay, docetaxel with/without wilforlide A pretreatment; conditions: PC3 (docetaxel-sensitive); 0.6, 1.25 or 2.5 μg/ml pretreatment
Experimental: Following the 72 hour wilforlide A treatment, a sulforhodamine B (SRB) assay was used to quantitate living cells. To perform the assay, the wilforlide A media was aspirated from each well, and replaced with a 10% solution of cold trichloroacetic acid (TCA) (Cat #: T6399, purchased from Sigma-Aldrich), and incubated for one hour at 4° C. After the TCA incubation, the TCA solution was aspirated, and the cells were washed five times with tap water. After removing the last wash, the plates were left with lids off at room temperature until the surfaces were dry, which took one to two hours. Then 50 μl of a 0.4% solution of sul-forhodamine B (SRB) sodium salt (Cat #: S9012, purchased from Sigma-Aldrich) was added to each well and the plates were incubated at room temperature for 20 to 30 minutes. Afterwards, the wells were washed five times with a 1% acetic acid solution in 10 mM TRIS base (Cat #: 161-0719, purchased from Bio-Rad Laboratories, Hercules, Calif.). The plates were subsequently left to dry for several hours or overnight. SRB that remained in the dried wells was solubilized by adding 100 μl of SRB solubilization solution (10 mM TRIS base) to each well, and placing the plates either on a gently-moving shaker or letting the plates remain stationary at room temperature until the SRB dissolves, which takes about five to ten minutes. The amount of SRB in each well, which correlated directly to the number of living cells at fixation, was determined spectrophotometrically at an absorbance of 565 nm by a microplate reader.
In these comparisons, the in vitro IC50 of a tested chemotherapeutic drug (D) in cell culture was compared to the drug's IC50 when drug treatment followed pretreatment of the cells with wilforlide A (Purchased from PI & PI Technology Inc. of Guangzhou, China or the National Institutes for Food and Drug Control in Beijing, China).
Triplicate wells were assigned to each experimental condition tested, and a 24 hour recovery period for the cells following the seeding of the wells was allowed. During the recovery period, the cells were incubated at 37° C. and 5% CO2.
At the end of the two hour pre-treatment period, 50 μl aliquots of the desired chemotherapeutic drug RPMI medium were added according to the amounts provided in Table 2.
After adding the various doses of chemotherapeutic drugs, as described above, the cells were incubated for an additional 72 hours under the same temperature and atmospheric conditions used for the pre-treatment step.
The cells were then incubated for 72 hours at 37° C. and 5% CO2. After the 72 hour incubation, sulforhodamine B (SRB) assays were performed as described in Example 1 to quantitate living cells.

PC3-TxR [5] = experiment: SRB cell viability assay, 72 h wilforlide A dose-response; format: cell-based, human; conditions: for A at 565 nm: background = 0.044
Experimental: The determination of the wilforlide A IC50. The IC50 for wilforlide A was determined in vitro for the purpose of identifying wilforlide A concentrations that could be used for determining its chemosensitizing effect (CE) in cell cultures of the docetaxel-resistant prostate cancer line PC3-TxR (Obtained from Prof. Evan T. Keller, University of Michigan).
Post-recovery, the plating media was aspirated from the cell cultures, and replaced with 50 μl per well of RPMI containing a designated concentration of wilforlide A. Then, the cells were incubated in the presence of the wilforlide A media for 72 hours. The 50 μl wilforlide A aliquots were prepared by making 1:3 serial dilutions of a wilforlide A stock solution (0.5 mg/ml in DMSO) to with concentrations ranging from 1×10^2 to 1×10^−3 μg/ml.

## CC1(C)[C@@H](O)CC[C@]2(C)[C@H]3CC=C4[C@@H]5C[C@@]6(C)C[C@H](OC6=O)[C@]5(C)CC[C@@]4(C)[C@]3(C)CC[C@@H]12 [wilforlide A, 3-epiabruslactone A]
[1]; 6 mg/kg i.p.
  tolerability in MTD study: well tolerant
[1]; 30 mg/kg p.o.
  tolerability in MTD study: well tolerant
[1]; […] i.v.
  tolerability in MTD study: well tolerant
[2]
  water solubility: poorly water soluble
PC3-TxR [3]
  chemosensitizing effect to docetaxel: sensitizes
DU145-TxR
  chemosensitizing effect to docetaxel: sensitizes
PC3-TxR cell tumors; Group 3: docetaxel 20 mg/kg i.v. weekly + wilforlide A […] i.v. weekly + 6 mg/kg i.p. daily, vs other groups
  tumor growth: significant retardation of tumor growth
PC3-TxR cell tumors; wilforlide A alone (Groups 6, 7)
  tumor growth: did not significantly inhibit the tumor growth
PC3-TxR cell tumors; wilforlide A with docetaxel 20 mg/kg i.v.
  effect on docetaxel's anti-tumor effect: significantly enhanced docetaxel's anti-tumor effect
SkBr3-TxR
  chemosensitizing effect to lapatinib: sensitizes
Bt474-TxR
  chemosensitizing effect to lapatinib: sensitizes
K562/Dox
  chemosensitizing effect to daunorubicin: sensitizes
[4]; i.p. 6 mg/kg
  Cmax: 750 ng/mL
  T1/2: 41.0 min
[4]; p.o. 30 mg/kg
  Cmax: 30 ng/mL
  T1/2: 25.6 min
[4]; i.v. […]
  T1/2: 11.2 min
PC3
  chemosensitizing effect to docetaxel: does not significantly enhance the sensitivity
PC3-TxR [5]; wilforlide A 0.001 μg/ml 72 h
  % viable: 100.0%
  mean A: 2.618
  A at 565 nm: 2.599 and 2.624 and 2.607 and 2.635 and 2.593 and 2.646
PC3-TxR [5]; wilforlide A 0.1 μg/ml 72 h
  % viable: 99.6%
  mean A: 2.606
  A at 565 nm: 2.611 and 2.592 and 2.610 and 2.617 and 2.615
PC3-TxR [5]; wilforlide A 0.333 μg/ml 72 h
  % viable: 100.9%
  mean A: 2.642
  A at 565 nm: 2.645 and 2.618 and 2.661 and 2.646 and 2.664 and 2.617
PC3-TxR [5]; wilforlide A 1 μg/ml 72 h
  % viable: 101.5%
  mean A: 2.657
  A at 565 nm: 2.626 and 2.629 and 2.755 and 2.658 and 2.659 and 2.616
PC3-TxR [5]; wilforlide A 3.33 μg/ml 72 h
  % viable: 77.7%
  mean A: 2.033
  A at 565 nm: 2.082 and 1.928 and 2.081 and 1.950 and 2.070 and 2.088
PC3-TxR [5]; wilforlide A 10 μg/ml 72 h
  % viable: 13.4%
  mean A: 0.351
  A at 565 nm: 0.399 and 0.358 and 0.348 and 0.325 and 0.320 and 0.357
PC3-TxR [5]; wilforlide A 33.3 μg/ml 72 h
  % viable: 2.9%
  mean A: 0.076
  A at 565 nm: 0.096 and 0.072 and 0.074 and 0.073 and 0.069
PC3-TxR [5]; wilforlide A 100 μg/ml 72 h
  % viable: 1.0%
  mean A: 0.025
  A at 565 nm: 0.023 and 0.024 and 0.033 and 0.027 and 0.018
